Results from patent US6949522B2, “β-2′- or 3′-halonucleosides” (Pharmasset, Inc., priority 2001, dated 2005).

Assays:
Type in all cases: cell-based
[1] = test system: 3TC-resistant (xxBRU 184V) HIV-1; experiment: HIV-1 Q-RT-PCR assay in human PBM cells, strain xxBRU 184V; conditions: for EC90: read-out: Q-RT-PCR HIV-1 assay 184V EC90
Method: (§1) Human PBM cells (1×10^6 cells/T25 flask) were PHA stimulated for 2 or 3 days, and infected with either a wild type (LAI and xxBRU) or a 3TC-resistant (xxBRU 184V) HIV-1 strain at 100 TCID50, as previously described (27). The culture was kept for 5 days in presence of test compounds at serial 1-log dilutions. Subsequently, human PBM cells were removed from the culture supernatant by centrifugation (10 minutes, 400×g, 4° C.). This clarified supernatant was tested either in the RT-assay, or in the Q-RT-PCR assay.
Viral RNA present in the culture supernatant was prepared using commercially available columns (QIAamp Viral RNA mini Kit, Qiagen, Valencia, Calif.). Viral RNA was detected in real-time by monitoring increases in fluorescence signal that resulted from degradation of a quenched fluorescent probe molecule following the hybridization of the probe to the arnplified viral DNA (TaqMan 7700 chemistry, Applied Biosystems, Foster City, Calif.). The TaqMan probe and primers were designed using the Primer Express software (Applied Biosystems); they cover highly conserved sequences complementary to an 81 base pair long fragment from the HIV-1 RT gene between codon 230 and 257 of the group MHIV-1 genome; • probe 5′-6FAM-[…]-TAMRA-3′ (Sequence 1) • sense primer: 5′-[…]-3′ (Sequence 2); and • antisense primer 5′-[…]-3′ (Sequence 3).
A total of 5 μL RNA was RT-amplified using reagents and conditions as described by the manufacturer (Applied Biosystems). […] Copy numbers were calibrated using the Roche Amplicor HIV-1 Monitor test™ (Roche Diagnostics, Branchburg, N.J.) on a 1-log dilution series of a clinical HIV-1 genotype B isolate (attenuated in vitro to obtain a high viral load). The 10-6 diluted sample became positive at threshold cycle (Ct=PCR cycle threshold where a sample becomes detectable)=35.52, which corresponded to 1,410 copies/mL in the Roche monitor HIV-1 version II assay. When validated over a dynamic range of 3 logs of virus, there was excellent correlation (r2˜1) between the two methodologies. […] Therefore, the currently designed primer and probe set allowed reliable quantification of both clinical samples and HIV-1 in vitro preparations.
(§2) HIV-1 present in culture supernatant fluids was quantified by two different methodologies: i) the Q-RT-PCR with read-out in log copies/mL; and ii) the endogenous viral RT assay on cell supernatant with read-out in log counts per minute/mL (CPM/mL). Upon addition of antiviral compounds to the culture media, a dose-related decrease in virus production was observed. Although the two methodologies measured different parameters (viral RNA versus active RT enzyme), results were not markedly different from each other. The HIV-1 Q-RT-PCR results were compared with a previously established cell-based antiviral drug evaluation assay (endogenous HIV-1 RT polymerization activity in cell supematant)(27).

[2] = test system: HIV-1 LAI (wild type); experiment: HIV-1 RT-assay on supernatant of acutely infected human PBM cells, strain LAI; conditions: 5 days, RT activity reduced by 90%
Method: as §1
(§3) Virus particles present in a 1 mL aliquot of culture supernatant were concentrated by high-speed centrifugation (2 hours, 20,000×g, 4° C.). The supernatant was then removed and the virus pellet was dispensed into a 100 μL virus solubilization buffer (VSB: 0.5% Triton X-100; 0.8 M NaCl, 0.5 mM phenylmethylsulfonyl, 20% glycerol, 50 mM Tris.HCl pH 7.8). A 10 μL aliquot of RT-VSB was mixed with 75 μL RT cocktail (60 mM Tris.HCl pH 7.8, 12 mM MgCl2, 6 mM DTT, 6 μg/mL poly (rA)n-oligo (dT)10-12, 1.2 mM dATP, and 80 μCi/mL 3H-TTP) and incubated for 2 hours at 37° C. Subsequently 100 μL of 10% TCA was added, and the total amount of incorporated 3H-TTP was determined.
as §2

[3] = test system: HIV-1 xxBRU (wild type); experiment: HIV-1 RT-assay on supernatant of acutely infected human PBM cells, strain xxBRU; conditions: 5 days, RT activity reduced by 90%
Method: as §1, §3, §2

[4] = test system: 3TC-resistant (xxBRU 184V) HIV-1; experiment: HIV-1 RT-assay on supernatant of acutely infected human PBM cells, strain xxBRU 184V; conditions: for EC90: read-out: RT-Assay 184V EC90
Method: as §1, §3, §2

[5] = human PBM cells, 5 days, viral RNA reduced by 90%
[6] = human PBM cells, 5 days, RT activity reduced by 90%
[7] = Human immunodeficiency virus 1, PBMC, 120 h

| SMILES | Q-RT-PCR HIV-1 assay FI, fold increase (EC90 HIV-1184V/EC90 HIV-1xxBRU) [1] | EC90 [1, 5] | EC90 [2] | EC90 [3] | RT-Assay FI, fold increase (EC90 HIV-1184V/EC90 HIV-1xxBRU) [4] | EC90 [4, 6] | EC90 [1, 7] | EC90 [2, 7] | EC90 [3, 7] | EC90 [4, 7] |
| --- | --- | --- | --- | --- | --- | --- | --- | --- | --- | --- |
| Nc1nc(=O)n([C@H]2S[C@@H](CO)C=C2F)cc1F [Compound L-18, (+)-1-[(1S,4R)-2,3-dideoxy-2,3-didehydro-2-fluoro-4-thio-β-L-ribofuranosyl]-5-fluoro-cytosine] | >100 | > 100 µM | 2.6 µM | 1.1 µM | >100 | > 100 µM |  |  |  |  |
| Nc1nc(=O)n([C@@H]2S[C@H](CO)C=C2F)cc1F [Compound D-18, (−)-1-[(1S,4R)-2,3-dideoxy-2,3-didehydro-2-fluoro-4-thio-β-D-ribofuranosyl]-5-fluorocytosine] |  | > 100 µM | > 100 µM | 119 µM |  | > 100 µM |  |  |  |  |
| Nc1ccn([C@@H]2C=C(F)[C@H](CO)O2)c(=O)n1 [Compound 10, 1-(2,3-Dideoxy-3-fluoro-β-L-glycero-pent-2-eno-furanosyl)cytosine] |  |  |  |  | 16.1 |  | > 100 µM | 25.3 µM | 35.5 µM | 572 µM |
| Nc1ccn([C@@H]2C=C(F)[C@H](CO)O2)c(=O)n1 [Compound 23, 1-(2,3-Didcoxy-3-fluoro-β-L-glycero-pent-2-eno-furanosyl)cytosine] | 115 | 68.4 µM | 0.67 µM | 0.14 µM | 586 | 82 µM |  |  |  |  |
| Cc1cn([C@H]2C[C@H](N=[N+]=[N-])[C@@H](CO)O2)c(=O)[nH]c1=O [AZT, 3′-azido-3′-deoxythymidine, reference compound] |  |  |  |  |  |  | 0.01 µM | 0.02 µM | 0.01 µM | 0.002 µM |
| Nc1ccn([C@H]2S[C@@H](CO)C=C2F)c(=O)n1 [Compound L-17, (+)-1-[(1S,4R)-2,3-dideoxy-2,3-didehydro-2-fluoro-4-thio-β-L-ribofuranosyl]-cytosine] | >50 | > 100 µM | 3.3 µM | 1.4 µM | 1,121 | 1570 µM |  |  |  |  |
| Nc1ccn([C@@H]2S[C@H](CO)C=C2F)c(=O)n1 [Compound D-17, (−)-1-[(1S,4R)-2,3-dideoxy-2,3-didehydro-2-fluoro4-thio-β-D-ribofuranosyl]-cytosine] | 12.8 | 65.8 µM | 11.9 µM | 5 µM | 25.0 | 125 µM |  |  |  |  |
| Nc1ccn([C@@H]2CS[C@H](CO)O2)c(=O)n1 [Compound 3TC, (−)-β-2′,3′-dideoxy-3′-thiacytidine, reference compound] | >1,562 |  |  |  | 6,688 |  | > 100 µM | 0.13 µM | 0.08 µM | 535 µM |
